From ChEMBL document CHEMBL1137872, “Potent and selective P2-P3 ketoamide inhibitors of cathepsin K with good pharmacokinetic properties via favorable P1', P1, and/or P3 substitutions” (Bioorg Med Chem Lett, 2004)
Converted amounts (≈) assume the structure as drawn.

Assays:
[1] = biological target: Cathepsin (S and K) (Homo sapiens) (UniProt P25774+P43235); experiment: Relative binding to human cathepsins S and K; type: protein assay
[2] = Total clearance in rats; type: ADME, organism-based; settings: rat, in vivo
Procathepsin L = Procathepsin L (Homo sapiens, UniProt P07711); experiment: Inhibition of 5 uM Cbz-Phe-Arg-AMC human cathepsin L in fluorescence assay
Sequence of Procathepsin L (P07711 whole entry): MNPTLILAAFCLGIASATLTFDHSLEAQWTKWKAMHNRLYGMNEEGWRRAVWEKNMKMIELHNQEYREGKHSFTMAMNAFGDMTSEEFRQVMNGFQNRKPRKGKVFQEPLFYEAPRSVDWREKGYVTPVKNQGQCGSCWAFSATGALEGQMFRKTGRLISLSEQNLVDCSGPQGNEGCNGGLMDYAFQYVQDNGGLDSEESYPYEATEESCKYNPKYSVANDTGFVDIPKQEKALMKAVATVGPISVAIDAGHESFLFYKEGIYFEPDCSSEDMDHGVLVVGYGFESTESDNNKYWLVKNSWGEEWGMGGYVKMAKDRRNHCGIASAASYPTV

Pro-cathepsin H = biological target: T1, Pro-cathepsin H (Homo sapiens, UniProt P09668); experiment: Inhibition of 50 uM L-Arg-beta-naphthalamide binding to human cathepsin H in fluorescence assay
T1 sequence (P09668 whole entry): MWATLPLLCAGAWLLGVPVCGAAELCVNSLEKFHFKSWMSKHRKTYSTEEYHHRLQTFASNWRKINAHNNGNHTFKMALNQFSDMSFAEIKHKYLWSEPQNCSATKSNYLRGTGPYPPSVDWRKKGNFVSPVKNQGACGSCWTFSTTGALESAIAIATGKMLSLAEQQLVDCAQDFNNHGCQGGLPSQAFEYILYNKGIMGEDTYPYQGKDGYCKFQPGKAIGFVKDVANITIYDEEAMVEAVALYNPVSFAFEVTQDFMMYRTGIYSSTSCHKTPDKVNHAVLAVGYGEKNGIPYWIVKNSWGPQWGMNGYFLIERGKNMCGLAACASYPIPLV

[3] = Terminal half-life was determined in rats upon intravenous administration as a solution in 40% hydroxypropyl-beta-cyclodextrin, pH = 5.1; type: ADME, organism-based; settings: rat, in vivo
Cathepsin B = Cathepsin B (Homo sapiens, UniProt P07858); experiment: Inhibition of 10 uM Cbz-Phe-Arg-AMC binding to human cathepsin B in fluorescence assay
[4] = Equilibrium solubility in fasted state-simulated intestinal fluid was determined […]; type: ADME, Rattus norvegicus; settings: read-out: FS-SIF
[5] = Apparent permeability coefficient for apical to basolateral flux was determined by Madin-Darby canine kidney cell monolayer transport assay; type: ADME, cell-based, Canis lupus familiaris; settings: dog, MDCK
Cathepsin S = Cathepsin S (Homo sapiens, UniProt P25774); experiment: Inhibition of 10 uM Cbz-Val-Val-Arg-AMC binding to human cathepsin S in fluorescence assay
Sequence of Cathepsin S (P25774 whole entry): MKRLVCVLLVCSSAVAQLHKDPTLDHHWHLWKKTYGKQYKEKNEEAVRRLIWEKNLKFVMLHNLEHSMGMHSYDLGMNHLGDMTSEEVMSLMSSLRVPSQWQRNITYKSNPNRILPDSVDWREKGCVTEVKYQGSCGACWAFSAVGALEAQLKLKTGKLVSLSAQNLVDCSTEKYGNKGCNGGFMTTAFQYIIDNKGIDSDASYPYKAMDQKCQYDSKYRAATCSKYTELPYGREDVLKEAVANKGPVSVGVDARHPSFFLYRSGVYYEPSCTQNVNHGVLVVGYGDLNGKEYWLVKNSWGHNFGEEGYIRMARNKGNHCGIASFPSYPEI

[6] = Steady state volume of distribution in rats; type: ADME, organism-based; settings: rat, in vivo; read-out: Vss
[7] = Oral bioavailability in rat; type: ADME, organism-based; settings: in vivo
Cathepsin K = biological target: T2, Cathepsin K (Homo sapiens, UniProt P43235); experiment: Inhibition of 10 uM Cbz-Phe-Arg-AMC binding to human cathepsin K in fluorescence assay
T2 sequence (P43235 whole entry): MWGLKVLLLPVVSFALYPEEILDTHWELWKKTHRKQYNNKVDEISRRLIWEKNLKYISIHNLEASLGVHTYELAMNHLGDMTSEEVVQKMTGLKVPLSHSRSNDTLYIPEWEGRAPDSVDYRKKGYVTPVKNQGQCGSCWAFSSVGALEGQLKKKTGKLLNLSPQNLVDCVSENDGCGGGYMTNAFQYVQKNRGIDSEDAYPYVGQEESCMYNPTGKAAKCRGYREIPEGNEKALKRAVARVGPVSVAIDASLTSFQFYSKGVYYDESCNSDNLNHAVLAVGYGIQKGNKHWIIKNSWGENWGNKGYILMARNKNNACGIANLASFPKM

[8] = biological target: T3, Cathepsin (L and K) (Homo sapiens) (UniProt P43235+P07711); experiment: (§1) Relative binding to human cathepsins L and K; type: protein assay
T3 sequence (P07711 whole entry, looked up, one chain of several): as the sequence (P07711 whole entry) above

[9] = biological target: T4, Pro-cathepsin H (Homo sapiens) (UniProt P09668); experiment: Relative binding to human cathepsins H and K
T4 sequence (whole entry): T1 sequence (P09668 whole entry)

[10] = biological target: Cathepsin (H and K) (Homo sapiens) (UniProt P09668+P43235); experiment: Relative binding affinity for human cathepsins H and K; type: protein assay
[11] = biological target: T3, Cathepsin (L and K) (Homo sapiens); experiment: as §1; type: protein assay; remark: listed apart in the source
[12] = Terminal half-life was determined in rats upon intravenous administration as a solution in 30% hydroxypropyl-beta-cyclodextrin, pH = 3.5; type: ADME, organism-based; settings: rat, in vivo
[13] = Terminal half-life was determined in rats upon intravenous administration as a solution in 30% hydroxypropyl-beta-cyclodextrin, pH = 5.1; type: ADME, organism-based; settings: rat, in vivo

| SMILES | Ratio [1] | clearance [2] [mL/min/kg] | IC50 (Procathepsin L) [nM] | IC50 (Pro-cathepsin H) [nM] | half-life [3] [h] | IC50 (Cathepsin B) [nM] | solubility thermodynamic [4] [µg/mL] | Papp A→B [5] [×10⁻⁶ cm/s] | IC50 (Cathepsin S) [nM] | Vd [6] [L/kg] | bioavailability [7] [%] | IC50 (Cathepsin K) [nM] | Ratio [8] | Ratio [9] | Ratio [10] | Ratio [11] | half-life [12] [h] | half-life [13] [h] |
| --- | --- | --- | --- | --- | --- | --- | --- | --- | --- | --- | --- | --- | --- | --- | --- | --- | --- | --- |
| CN(C)S(=O)(=O)NCCCC[C@H](NC(=O)OCC1(Cc2ccc(F)cc2)CCC1)C(=O)C(=O)NCc1cccnc1 | 3.2 | 9.6 | > 5000 | > 5000 |  | > 5000 | 30 (≈ 50.7 µM) | 6.9 | 130 | 0.42 | 18 | 40 | > 120 | > 120 |  | > 120 | 4.5 |  |
| CCCC[C@H](NC(=O)OC(C)(C)Cc1ccccc1)C(=O)C(=O)N[C@H](C)c1ccccc1 |  |  |  |  |  |  |  |  |  |  |  | 630 |  |  |  |  |  |  |
| CCCC[C@H](NC(=O)OC1(Cc2ccccc2)CCCCC1)C(=O)C(=O)N[C@H](C)c1ccccc1 |  |  |  |  |  |  |  |  |  |  |  | 210 |  |  |  |  |  |  |
| CCCC[C@H](NC(=O)OCC(C)(C)c1ccccc1)C(=O)C(=O)N[C@H](C)c1ccccc1 | 4.2 |  | 3000 | > 5000 |  | 5000 |  |  | 270 |  |  | 65 | 46 |  | > 77 |  |  |  |
| CCCC[C@H](NC(=O)OC(CC)(CC)Cc1ccccc1)C(=O)C(=O)N[C@H](C)c1ccccc1 |  |  |  |  |  |  |  |  |  |  |  | 150 |  |  |  |  |  |  |
| CCCC[C@H](NC(=O)OC1(Cc2ccccc2)CCCC1)C(=O)C(=O)N[C@H](C)c1ccccc1 | 17 |  | 3000 | > 12000 |  | > 12000 |  |  | 430 |  |  | 25 | 120 |  | > 480 |  |  |  |
| CCCC[C@H](NC(=O)OC1(Cc2ccccc2)CCC1)C(=O)C(=O)N[C@H](C)c1ccccc1 |  |  |  |  |  |  |  |  |  |  |  | 710 |  |  |  |  |  |  |
| CCCC[C@H](NC(=O)OCC1(Cc2ccccc2)CCCC1)C(=O)C(=O)N[C@H](C)c1ccccc1 | 0.4 |  | 2200 | > 5000 |  | > 5000 |  |  | 11 |  |  | 26 | 85 | > 190 | > 190 |  |  |  |

Stronger by IC50 (Cathepsin K), values ahead:

| Ratio [1] | clearance [2] [mL/min/kg] | IC50 (Procathepsin L) [nM] | IC50 (Pro-cathepsin H) [nM] | half-life [3] [h] | IC50 (Cathepsin B) [nM] | solubility thermodynamic [4] [µg/mL] | Papp A→B [5] [×10⁻⁶ cm/s] | IC50 (Cathepsin S) [nM] | Vd [6] [L/kg] | bioavailability [7] [%] | IC50 (Cathepsin K) [nM] | Ratio [8] | Ratio [9] | Ratio [10] | Ratio [11] | half-life [12] [h] | half-life [13] [h] | SMILES |
| --- | --- | --- | --- | --- | --- | --- | --- | --- | --- | --- | --- | --- | --- | --- | --- | --- | --- | --- |
|  | 33 |  |  |  |  | 20 (≈ 34.9 µM) | 14 |  | 1.6 | 15 | 24 |  |  |  |  |  | 1.57 | CNC(=O)NCCCC[C@H](NC(=O)OCC1(Cc2c(F)cccc2F)CCC1)C(=O)C(=O)N[C@H](C)c1ccccc1 |
| 1.4 |  | 1600 | > 2000 |  | > 2000 |  |  | 34 |  |  | 24 | 67 |  | > 83 |  |  |  | CCCC[C@H](NC(=O)OCC1(CCc2ccccc2)CCC1)C(=O)C(=O)N[C@H](C)c1ccccc1 |
| 1 |  | 1300 | > 2000 |  | > 2000 |  |  | 17 |  |  | 17 | > 120 | > 120 |  | 76 |  |  | CCCC[C@H](NC(=O)OCC1(CCCc2ccccc2)CCC1)C(=O)C(=O)N[C@H](C)c1ccccc1 |
| 2.1 | 43 | 680 | > 5000 | 1.83 | > 5000 | 90 (≈ 147 µM) | 47 | 27 | 4.2 | 38 | 13 |  |  |  |  |  |  | C[C@@H](NC(=O)C(=O)[C@H](CCCCNC(=O)N1CCOCC1)NC(=O)OCC1(Cc2ccc(F)cc2)CCC1)c1ccccc1 |
| 1.5 |  | 1200 | > 5000 |  | > 5000 |  |  | 20 |  |  | 13 | 92 | > 380 | > 380 |  |  |  | CCCC[C@H](NC(=O)OCC(C)(C)Cc1ccccc1)C(=O)C(=O)N[C@H](C)c1ccccc1 |
| 2.4 |  | 1300 | > 5000 |  | 3600 |  |  | 20 |  |  | 8.5 | 150 | > 580 | > 580 |  |  |  | CCCC[C@H](NC(=O)OCC1(Cc2ccccc2)CCC1)C(=O)C(=O)N[C@H](C)c1ccccc1 |
|  | 27 |  |  | 1.23 |  | 300 (≈ 505 µM) | 1.4 |  | 0.66 | 8.1 | 7.6 |  |  |  |  |  |  | C[C@@H](NC(=O)C(=O)[C@H](CCCCNC(=O)N1CCOCC1)NC(=O)OCC1(Cc2ccncc2)CCC1)c1ccccc1 |
| 6.3 | 45 | 330 | > 500 |  | > 500 | 150 (≈ 337 µM) | 15 | 5.2 |  | 31 | 0.83 | > 600 | > 600 |  | 390 |  | 2 | CCCC[C@H](NC(=O)OCC1(Cc2ccc(F)cc2)CCC1)C(=O)C(=O)Nc1ccn[nH]1 |
